Measurements as given in patent publication US11192852B2, “Pyrazolyl and pyrimidinyl tricyclic enones as antioxidant inflammation modulators” (REATA PHARMACEUTICALS, INC., priority 2010, dated 2021).

Columns and labels:
[1] = system: Nrf2 transcription factor (human NQO1-ARE reporter) in HuH7 cells; experiment: NQO1-ARE Luciferase Reporter Assay; type: cell-based; settings: Huh-7, 62.5 nM, 18 h, fold over DMSO vehicle, Firefly normalized to Renilla
Excerpt: NQO1-ARE Luciferase Reporter Assay.
This assay allows for quantitative assessment of the endogenous activity of the Nrf2 transcription factor in cultured mammalian cells. Expression of Firefly luciferase from NQO1-ARE luciferase reporter plasmid is controlled by binding of Nrf2 to a specific enhancer sequence corresponding to the antioxidant response element (ARE) that was identified in the promoter region of the human NADPH:quinone oxidoreductase 1 (NQO1) gene (Xie et al., 1995). The plasmid was constructed by inserting a sequence:
5′-[…]-3′ (SEQ ID NO:1) encompassing the human NQO1-ARE into the pLuc-MCS vector using HindIII/XhoI cloning sites (GenScript Corp., Piscataway, N.J.). The assay is performed in HuH7 cells maintained in DMEM (Invitrogen) supplemented with 10% FBS and 100 U/ml (each) of penicillin and streptomycin. For the assay, cells are plated in 96-well plates at 17,000 cells per well. Twenty four hours later, the cells are co-transfected with 50 ng each of NQO1-ARE reporter plasmid and pRL-TK plasmid using Lipofectamine 2000 transfection reagent (Invitrogen). pRL-TK plasmid constitutively expresses Renilla luciferase and is used as an internal control for normalization of transfection levels. Thirty hours after transfection, the cells are treated with compounds (at concentrations ranging from 0 to 1 μM) for eighteen hours. Firefly and Renilla luciferase activity is assayed by Dual-Glo Luciferase Assay (Promega Corp., Madison, Wis.), the luminescence signal is measured on an L-Max II luminometer (Molecular Devices). Firefly luciferase activity is normalized to the Renilla activity, and fold induction over a vehicle control (DMSO) of normalized Firefly activity is calculated. The fold induction at 62.5 nM concentration is used for comparing relative potencies of compounds to induce Nrf2 transcriptional activity. See Xie T, Belinsky M, Xu Y, Jaiswal A K. ARE- and TRE-mediated regulation of gene expression. Response to xenobiotics and antioxidants. J Biol Chem. (1995) 270(12):6894-6900, which is incorporated herein by reference.

[2] = system: IFNγ-induced NO production in RAW264.7 mouse macrophages; experiment: Suppression of IFNγ-induced nitric oxide production (Griess reagent); type: cell-based; settings: 2 h pre-treatment (0-200 nM), then IFNγ 24 h, normalized to cell viability
Excerpt: Nitric Oxide Production and Cell Viability.

[3] = Mus musculus, RAW264.7, RAW264.7 cells

SMILES	fold induction at 0.0625 µM [1]	IC50 [2, 3] [nM]	IC50 ([2]; RAW264.7 cells) [nM]
Cn1nc2c(c1-c1ccncc1)CC[C@H]1C(C)(C)C(=O)C(C#N)=C[C@]21C [TX63505]	6.8	16	–
C[C@@H]1C(=O)C(C#N)=C[C@]2(C)c3nn(C)c(-c4ccccc4)c3CC[C@@H]12 (racemic) [TX63541]	4.4	6	–
CC(C)(C)c1ncc2c(n1)[C@@]1(C)C=C(C#N)C(=O)C(C)(C)[C@@H]1CC2 [TX63561]	2.4	44	–
COc1nc(-c2cccnc2)nc2c1CC[C@H]1[C@H](C)C(=O)C(C#N)=C[C@]21C [TX63724]	4.9	3.1	–
Cn1cc2c(n1)[C@@]1(C)C=C(C#N)C(=O)C(C)(C)[C@@H]1CC2 [TX63341]	1.7	–	70
Cn1nc2c(c1-c1ccccc1)CC[C@H]1[C@H](Cc3ccccc3)C(=O)C(C#N)=C[C@]21C [TX63607]	1	> 200	–
Cc1nc2c(c(=O)n1C)CC[C@H]1C(C)(C)C(=O)C(C#N)=C[C@]21C [TX63584]	3.1	> 200	–
CC[C@@H]1C(=O)C(C#N)=C[C@]2(C)c3nc(-c4ccccc4)ncc3CC[C@@H]12 [TX63598]	1.9	12	–
C[C@@H]1C(=O)C(C#N)=C[C@]2(C)c3n[nH]c(-c4ccccc4)c3CC[C@@H]12 [TX63836]	–	6.1	–
Cn1cc2c(n1)[C@@]1(C)C=C(C#N)C(=O)C(C)(C)[C@@H]1CC2 [TX63432]	–	–	166
CC1(C)C(=O)C(C#N)=C[C@]2(C)c3nc4c(Br)cnn4cc3CC[C@@H]12 [TX63617]	–	33	–
COc1ccc(-c2c3c(nn2C)[C@@]2(C)C=C(C#N)C(=O)C(C)(C)[C@@H]2CC3)cc1 [TX63515]	–	35	–
COc1nc(OC)c2c(n1)[C@@]1(C)C=C(C#N)C(=O)[C@@H](C)[C@@H]1CC2 [TX63718]	–	–	6
COc1nc(C)nc2c1CC[C@H]1[C@H](C)C(=O)C(C#N)=C[C@]21C [TX63646]	–	8.5	–
Cc1nc(-c2c3c(nn2C)[C@@]2(C)C=C(C#N)C(=O)C(C)(C)[C@@H]2CC3)no1 [TX63723]	–	35	–
Cc1nc(-c2ccccc2)c2c(n1)[C@@]1(C)C=C(C#N)C(=O)C(C)(C)[C@@H]1CC2 [TX63529]	–	46	–
CCOc1nc(OCC)c2c(n1)[C@@]1(C)C=C(C#N)C(=O)[C@@H](C)[C@@H]1CC2 [TX63736]	–	9.8	–
CC(C)n1nnc(-c2c3c(nn2C)[C@@]2(C)C=C(C#N)C(=O)C(C)(C)[C@@H]2CC3)n1 [TX63734]	–	43	–
Cn1nc2c(c1-c1ccc3ccccc3c1)CC[C@H]1C(C)(C)C(=O)C(C#N)=C[C@]21C [TX63600]	–	59	–
CC(C)c1ncc2c(n1)[C@@]1(C)C=C(C#N)C(=O)C(C)(C)[C@@H]1CC2 [TX63534]	–	49	–
CCOC(=O)c1c2c(nn1C)[C@@]1(C)C=C(C#N)C(=O)C(C)(C)[C@@H]1CC2 [TX63630]	–	38	–

SMILES	fold induction at 0.0625 µM [1]	IC50 [2, 3] [nM]	IC50 ([2]; RAW264.7 cells) [nM]
Cn1nc2c(c1C#N)CC[C@H]1C(C)(C)C(=O)C(C#N)=C[C@]21C [TX63613]	–	101	–
CCOc1nc(C(C)(C)C)nc2c1CC[C@H]1[C@H](C)C(=O)C(C#N)=C[C@]21C [TX63900]	–	40	–
CCOC(=O)n1nc2c(c1-c1ccccc1)CC[C@H]1[C@H](C)C(=O)C(C#N)=C[C@]21C [TX63871]	–	7.5	–
Cn1nc2c(c1-c1ccccc1)C(=O)C[C@H]1C(C)(C)C(=O)C=C[C@]21C [TX63804]	–	> 200	–
CC1(C)C(=O)C(C#N)=C[C@]2(C)c3nc(-c4ccncc4)ncc3CC[C@@H]12 [TX63636]	–	27	–
Cn1nc2c(c1-c1cccc3ccccc13)CC[C@H]1C(C)(C)C(=O)C(C#N)=C[C@]21C [TX63603]	–	61	–
Cn1[nH]c2c(c1=O)CC[C@H]1C(C)(C)C(=O)C(C#N)=C[C@]21C [TX63676]	–	> 200	–
Cn1nc2c(c1C1CCCCC1)CC[C@H]1C(C)(C)C(=O)C(C#N)=C[C@]21C [TX63591]	–	74	–
C#Cc1c2c(nn1C)[C@@]1(C)C=C(C#N)C(=O)C(C)(C)[C@@H]1CC2 [TX63651]	–	23	–
CCOc1nc(-c2ccccc2)nc2c1CC[C@H]1[C@H](C)C(=O)C(C#N)=C[C@]21C [TX63731]	–	32	–
CC1(C)C(=O)C(C#N)=C[C@]2(C)c3[nH]nc(-c4ccccc4)c3CC[C@@H]12 [TX63579]	–	22	–
Cn1cc2c(n1)[C@@]1(C)C=C(C#N)C(=O)C(C)(C)[C@@H]1C2 [TX63559]	–	> 200	–
Cc1noc(-c2c3c(nn2C)[C@@]2(C)C=C(C#N)C(=O)[C@@H](C)[C@@H]2CC3)n1 [TX63872]	–	4.6	–
CC1(C)C(=O)C(C#N)=C[C@]2(C)c3nc(-c4ccccc4Cl)ncc3CC[C@@H]12 [TX63612]	–	43	–
CC1(C)C(=O)C(C#N)=C[C@]2(C)c3nn(-c4ccccc4)c(-c4ccccc4)c3CC[C@@H]12 [TX63544]	–	39	–
CC1(C)C(=O)C(C#N)=C[C@]2(C)c3c(cnc4c(-c5ccccc5)cnn34)CC[C@@H]12 [TX63626]	–	38	–
Cn1ncc2c1[C@@]1(C)C=C(C#N)C(=O)C(C)(C)[C@@H]1CC2 [TX63342]	–	180	–
CC1(C)C(=O)C(C#N)=C[C@]2(C)c3nc(-c4ccc(Cl)cc4)ncc3CC[C@@H]12 [TX63582]	–	33	–
Cn1cnc(-c2c3c(nn2C)[C@@]2(C)C=C(C#N)C(=O)C(C)(C)[C@@H]2CC3)n1 [TX63714]	–	> 200	–
C[C@@H]1C(=O)C(C#N)=C[C@]2(C)c3nn(C)c(Br)c3CC[C@@H]12 [TX63606]	–	11	–
Cn1nc2c(c1Br)CC[C@H]1C(C)(C)C(=O)C(C#N)=C[C@]21C [TX63445]	–	37.9	–

SMILES	fold induction at 0.0625 µM [1]	IC50 [2, 3] [nM]	IC50 ([2]; RAW264.7 cells) [nM]
CC1(C)C(=O)C(C#N)=C[C@]2(C)c3nn(-c4ccccc4)cc3CC[C@@H]12 [TX63455]	–	109	–
CC1(C)C(=O)C(C#N)=C[C@]2(C)c3nc(-c4ccccn4)ncc3CC[C@@H]12 [TX63641]	–	43	–
CC1(C)C(=O)C(C#N)=C[C@]2(C)c3[nH]ncc3CC[C@@H]12 [TX63467]	–	> 200	–
Cc1noc(C)c1-c1c2c(nn1C)[C@@]1(C)C=C(C#N)C(=O)C(C)(C)[C@@H]1CC2 [TX63625]	–	77	–
Cn1nc2c(c1-c1ccc(F)cc1)CC[C@H]1C(C)(C)C(=O)C(C#N)=C[C@]21C [TX63507]	–	39	–
C[C@@H]1C(=O)C(C#N)=C[C@]2(C)c3nn(C)c(-c4cccnc4)c3CC[C@@H]12 [TX63722]	–	8.3	–
Cc1c2c(nn1C)[C@@]1(C)C=C(C#N)C(=O)C(C)(C)[C@@H]1CC2 [TX63637]	–	45	–
Cc1nc(-c2ncc3c(n2)[C@@]2(C)C=C(C#N)C(=O)C(C)(C)[C@@H]2CC3)cs1 [TX63628]	–	62	–
C[C@@H]1C(=O)C(C#N)=C[C@]2(C)c3nn(C)c(N4C(=O)NC(C)(C)C4=O)c3CC[C@@H]12 [TX63776]	–	> 200	–
Cn1nnc(-c2c3c(nn2C)[C@@]2(C)C=C(C#N)C(=O)C(C)(C)[C@@H]2CC3)n1 [TX63665]	–	14	–
C[C@@H]1C(=O)C(C#N)=C[C@]2(C)c3nn(C)c(-c4ccccc4F)c3CC[C@@H]12 [TX63721]	–	7.8	–
C[C@@H]1C(=O)C(C#N)=C[C@]2(C)c3nn(C)c(-c4cccc(F)c4)c3CC[C@@H]12 [TX63659]	–	8.1	–
COC(=O)n1cc2c(n1)[C@@]1(C)C=C(C#N)C(=O)C(C)(C)[C@@H]1CC2 [TX63462]	–	147	–
Cn1nc2c(c1-c1cccc(Cl)c1)CC[C@H]1C(C)(C)C(=O)C(C#N)=C[C@]21C [TX63485]	–	34	–
Cn1nc2c(c1-c1nnn(Cc3ccccc3)n1)CC[C@H]1C(C)(C)C(=O)C(C#N)=C[C@]21C [TX63729]	–	29	–
CC1(C)C(=O)C(C#N)=C[C@]2(C)c3nc(C(F)(F)F)ncc3CC[C@@H]12 [TX63567]	–	43	–
Cn1nc2c(c1-c1ccccc1Cl)CC[C@H]1C(C)(C)C(=O)C(C#N)=C[C@]21C [TX63491]	–	35	–
CC(=O)n1nc2c(c1-c1ccccc1)CC[C@H]1[C@H](C)C(=O)C(C#N)=C[C@]21C [TX63850]	–	8.9	–
CC(=O)n1cc2c(n1)[C@@]1(C)C=C(C#N)C(=O)C(C)(C)[C@@H]1CC2 [TX63463]	–	≥ 205	–
CCOc1nc(C)nc2c1CC[C@H]1[C@H](C)C(=O)C(C#N)=C[C@]21C [TX63773]	–	6	–
CC1(C)C(=O)C(C#N)=C[C@]2(C)c3nn(C(C)(C)C)cc3CC[C@@H]12 [TX63450]	–	148	–
